The values that follow come from patent US7488754B2, “Method for the treatment of polycystic kidney disease” (Wyeth, priority 2002, dated 2009).

Marks after values point to notes of the source that are not given here.

The IC50 is the concentration needed to halve the response being measured. Read a high IC50 as weaker potency in that assay.

In one data set the target is TACE (Homo sapiens, UniProt P78536). Briefly: TACE activity (IC 50). Format: biochemical.
In the next data set the target is MMP-13 (Homo sapiens, UniProt P45452). Briefly: MMP activity (IC 50), MMP-13. Format: biochemical.
The target of a further data set is T1, MMP-1 (Homo sapiens, UniProt P03956).
T1 sequence (P03956 100-469): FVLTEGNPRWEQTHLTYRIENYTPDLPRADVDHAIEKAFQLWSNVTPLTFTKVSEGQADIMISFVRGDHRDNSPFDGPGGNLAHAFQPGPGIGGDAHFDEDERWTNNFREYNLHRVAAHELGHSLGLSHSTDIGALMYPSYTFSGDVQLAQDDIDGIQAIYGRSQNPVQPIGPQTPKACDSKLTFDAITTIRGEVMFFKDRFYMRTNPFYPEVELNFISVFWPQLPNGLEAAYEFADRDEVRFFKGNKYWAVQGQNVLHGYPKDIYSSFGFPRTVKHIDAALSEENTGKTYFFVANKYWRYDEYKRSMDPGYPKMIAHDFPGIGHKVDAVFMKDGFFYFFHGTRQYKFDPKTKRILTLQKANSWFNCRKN
Briefly: MMP activity (IC 50), MMP-1. Format: biochemical.

The next data set relates to noncystic littermates. Briefly: Treatment of noncystic (phenotypically normal) littermates of bpk mice. Format: in vivo. The conditions noted are these: P-21 noncystic mice. How it is done:
(§1) Cystic bpk mice and phenotypically normal littermates were injected with a dose of 100 mg/kg/dose of 1-acetyl-4-(4-but-2-ynyloxy-benzenesulfonyl)-2,3,4,5-tetrahydro-1 h-[1,4]benzodiazepine-3-carboxylic acid hydroxyamide given intraperitoneally once daily, in a vehicle containing 0.5% methocellulose (Fluka Biochemica, Ronkonkoma, N.Y.) and 2% Tween 80 (J T Baker, Phillipsburg, N.J.), beginning at postnatal day 7. Age-matched untreated cystic bpk mice and their noncystic littermates served as controls. At day 21, mice were sacrificed. Blood was obtained by orbital puncture prior to sacrifice. Kidney weight and body weight for treated and untreated cystic and noncystic mice were measured at sacrifice. Blood urea nitrogen (BUN) was assessed using a calorimetric assay. Serum creatinine was assessed using standard techniques in the hospital laboratory. Differences in clinical and laboratory parameters between treated and untreated cystic and noncystic mice were analyzed by two-tailed Student's t-test.

A further data set has as its target MMP-9 (Homo sapiens, UniProt P14780). Briefly: MMP activity (IC 50), MMP-9. The data set is classed as biochemical.
The test system of data set [1] is cystic bpk mice. Briefly: Treatment of cystic bpk mice (bpk model of ARPKD). The data set is classed as in vivo.
From the text: This model arose from a spontaneous mutation in a colony of BALB/C mice. Affected animals have many similarities to the human disease including collecting tubule (CT) cysts and biliary ectasia and fibrosis. The kidney disease has a consistent and severe phenotype. Mice homozygous for the bpk mutation have microscopic evidence of cyst formation at birth. Proximal tubule (PT) cysts are present at birth, which are gradually replaced by CT cysts as the disease progresses. Cyst expansion and kidney fibrosis result in death due to renal failure at 24-28 days. Heterozygotes show no phenotypic abnormalities and are identified by their ability to breed affected offspring. Unaffected (noncystic) littermates of cystic bpk mice are either wild-type or heterozygous at the bpk locus.
as §1
Kidneys were fixed in 4% paraformaldehyde and embedded in plastic. Segment-specific localization of cysts was assessed using lectins specific to proximal tubule (Lotus tetragonolobus, LTA), and collecting tubule (Dolichos biflorus agglutinin, DBA). Serial LTA and DBA stained sections were examined by light microscopy and assessed for severity of cystic dilatations in PTs and CTs, expressed on a scale of 0 to 5 using a modified cystic index: • 0=No cysts • 1=≦0.11 mm • 2=0.12-0.19 mm • 3=0.20-0.27 mm • 4=0.28-0.35 mm • 5=≧0.36 mm The total number of CT (DBA+/LTA−) cysts and PT (LTA+/DBA−) cysts within a section were counted and expressed as a ratio.
Mice were treated from day 7 of life until day 21, then sacrificed. […] The results are listed below in Tables 1, 2, and 3.

For data set [2], the system named is cystic bpk mice. Briefly: Treatment of cystic bpk mice (bpk model of ARPKD). The conditions noted are these: B 50 mg/kg/day once daily IP day 7 to 21. The data set is classed as in vivo.
The mark [3] stands for this setting: 100 mg/kg/dose intraperitoneally once daily from postnatal day 7, sacrifice day 21.
Setting [4] is: P-21 cystic bpk mice, 100 mg/kg/dose intraperitoneally once daily from postnatal day 7, sacrifice day 21.

MMP-9, sequence (P14780 94-707): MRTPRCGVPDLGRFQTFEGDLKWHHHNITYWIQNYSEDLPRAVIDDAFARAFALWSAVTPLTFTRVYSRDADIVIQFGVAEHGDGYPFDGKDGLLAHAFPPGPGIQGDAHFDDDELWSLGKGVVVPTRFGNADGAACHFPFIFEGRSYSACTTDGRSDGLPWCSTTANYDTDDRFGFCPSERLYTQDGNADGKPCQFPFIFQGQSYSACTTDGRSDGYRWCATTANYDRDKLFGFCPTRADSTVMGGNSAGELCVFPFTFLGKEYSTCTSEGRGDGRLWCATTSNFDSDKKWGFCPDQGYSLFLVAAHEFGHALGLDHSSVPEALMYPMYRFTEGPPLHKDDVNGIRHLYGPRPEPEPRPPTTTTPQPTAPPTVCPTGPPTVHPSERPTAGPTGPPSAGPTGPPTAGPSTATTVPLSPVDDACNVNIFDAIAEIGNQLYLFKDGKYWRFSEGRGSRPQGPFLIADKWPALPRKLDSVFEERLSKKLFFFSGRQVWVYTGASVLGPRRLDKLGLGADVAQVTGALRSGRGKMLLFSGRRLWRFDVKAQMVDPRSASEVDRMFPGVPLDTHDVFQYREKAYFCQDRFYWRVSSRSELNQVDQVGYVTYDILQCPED
TACE, sequence (P78536 215-824): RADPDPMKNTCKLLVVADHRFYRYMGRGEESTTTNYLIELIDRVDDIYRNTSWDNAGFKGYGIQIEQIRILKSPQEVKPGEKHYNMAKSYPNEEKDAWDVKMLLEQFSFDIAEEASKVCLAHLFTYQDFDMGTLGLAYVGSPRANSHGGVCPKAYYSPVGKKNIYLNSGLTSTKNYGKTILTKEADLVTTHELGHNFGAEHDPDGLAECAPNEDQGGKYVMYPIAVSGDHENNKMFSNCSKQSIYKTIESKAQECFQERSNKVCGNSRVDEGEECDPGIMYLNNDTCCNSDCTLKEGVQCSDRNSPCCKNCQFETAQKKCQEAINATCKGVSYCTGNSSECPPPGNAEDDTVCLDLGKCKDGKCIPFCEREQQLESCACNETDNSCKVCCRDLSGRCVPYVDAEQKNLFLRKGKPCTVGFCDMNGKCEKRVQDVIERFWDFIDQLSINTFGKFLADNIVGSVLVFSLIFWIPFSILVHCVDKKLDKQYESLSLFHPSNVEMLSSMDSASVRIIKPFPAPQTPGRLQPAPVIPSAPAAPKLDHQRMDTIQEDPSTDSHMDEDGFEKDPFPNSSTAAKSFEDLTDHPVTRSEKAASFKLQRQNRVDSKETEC

Regarding `CC#CCOc1ccc(S(=O)(=O)N2Cc3ccccc3N(C(C)=O)CC2C(=O)NO)cc1` (stereo not drawn) [A, 1-Acetyl-4-(4-But-2-ynyloxy-Benzenesulfonyl)-2,3,4,5-Tetrahydro-1H-[1,4]Benzodiazepine-3-Carboxylic Acid Hydroxyamide], the IC50 is 8.4 nM on TACE, 3 nM at MMP-13, 6.6 nM at MMP-1 and 12 nM against MMP-9. Further, the BUN is recorded as 17 +/− 4^d mg/dl in the data set with noncystic littermates (100 mg/kg/dose intraperitoneally once daily from postnatal day 7, blood at day 21) and 33 +/− 4^b** mg/dl in the data set on cystic bpk mice [1] (P-21 cystic bpk mice, 100 mg/kg/dose intraperitoneally once daily from postnatal day 7, blood at day 21). The “Body Weight” value is given as 8.5 +/− 1.0 grams in the data set on noncystic littermates (setting [3]) and 8.2 +/− 1.3 grams in the data set on cystic bpk mice [1] (setting [4]). For the same molecule, the figures for the “Kidney Weight” value with noncystic littermates (setting [3]) and in the data set on cystic bpk mice [1] (setting [4]) were 0.13 +/− 0.01 grams and 0.93 +/− 0.2** grams, respectively. The “Kidney Weight to Body Weight” value in the data set on noncystic littermates (setting [3]) is on record as 1.5 +/− 0.1%; with cystic bpk mice [1] (setting [4]), 11.2 +/− 1.3** percent. Besides, the Creatinine in the data set on noncystic littermates (serum, 100 mg/kg/dose intraperitoneally once daily from postnatal day 7, blood at day 21) was 0.15 +/− 0.05^e mg/dl; in the data set with cystic bpk mice [1] (serum, P-21 cystic bpk mice, 100 mg/kg/dose intraperitoneally once daily from postnatal day 7, blood at day 21), 0.18 +/− 0.05^b mg/dl. Further, the “CT Cystic Index (graded 1–5)” value with cystic bpk mice [1] (collecting tubule cysts, DBA stained kidney sections, cystic mice, 100 mg/kg/dose IP once daily day 7 to 21) was 3.2 +/− 0.4**. For the same molecule, the “CT Cyst Size Range” value with cystic bpk mice [1] (collecting tubule cysts, cystic mice, 100 mg/kg/dose IP once daily day 7 to 21) is reported as 0.012–0.29 mm. The “Cystic Kidney Weight to Body Weight” value in the data set on cystic bpk mice [1] (cystic bpk mice, A 100 mg/kg/dose IP once daily day 7 to 21) is 11.2 +/− 1.3%. Further, the “PT Cystic Index (graded 1–5)” value with cystic bpk mice [1] (proximal tubule cysts, LTA stained kidney sections, cystic mice, 100 mg/kg/dose IP once daily day 7 to 21) is listed as 1.8 +/− 0.4. The “PT Cyst Size Range” value in the data set on cystic bpk mice [1] (proximal tubule cysts, cystic mice, 100 mg/kg/dose IP once daily day 7 to 21) was 0.012–0.17 mm. Besides, the “Cystic CT/PT Ratio” value in the data set on cystic bpk mice [1] (total number of CT cysts to PT cysts within a section, cystic mice, 100 mg/kg/dose IP once daily day 7 to 21) was 1.2**.

As for `O=C(NO)C1(S(=O)(=O)c2ccc(Oc3ccc(Cl)cc3)cc2)CCN(Cc2ccccc2)CC1` [B, 1-Benzyl-4-[4-(4-chloro-phenoxy)-benzenesulfonyl]-piperidine-4-carboxylic acid hydroxamide], the “Cystic Kidney Weight to Body Weight” value in the data set with cystic bpk mice [2] is given as 15.3 +/− 1.7%.
